Measurements as given in ChEMBL document CHEMBL5352502, “Design, synthesis and biological evaluation of novel lipophilic 2, 5-disubstituted tetrazole analogues of muramyl dipeptide as NOD2 agonists” (Bioorg Med Chem, 2023).
Activity calls are given as the source filed them. The calls are words filed in the database; no cut-off is given here.

Experiments:
[1] = system: Serum; test: Induction of antibody titer production in immunized BALB/c mouse serum assessed as increase in IgG1 antibody titer at 10 to 30 ug for 28 days; type: functional, cell-free; conditions: dose 10-30 µg, time 28.0 day
[2] = system: Peritoneal macrophage; test: Cytotoxicity against BALB/c mouse peritoneal macrophage assessed as cell proliferation at 20 ug for 48 hrs by MTT assay; type: toxicity, cell-based; conditions: dose 20 µg
[3] = system: Serum; test: Induction of antibody titer production in immunized BALB/c mouse serum assessed as increase in IgG2a antibody titer at 10 to 30 ug for 28 days; type: functional, cell-free; conditions: dose 10-30 µg, time 28.0 day
[4] = system: Splenocyte; test: Upregulation of IL-1beta in Dengue virus recombinant antigen restimulated mouse splenocyte incubated at 30 ug for 48 hrs by ELISA anlaysis; type: functional, cell-based; conditions: dose 10-30 µg
[5] = system: Splenocyte; test: Cytotoxicity against mouse splenocyte incubated at 10 to 30 ug for 3 hrs in by MTT assay; type: toxicity, cell-based; conditions: dose 10-30 µg
[6] = system: Splenocyte; test: Upregulation of IL-1beta in Dengue virus recombinant antigen restimulated mouse splenocyte incubated at 20 ug for 48 hrs by ELISA anlaysis; type: functional, cell-based; conditions: dose 20.0 µg
[7] = system: CD4+ve Th; test: Stimulation of CD4+ T helper cells in mouse spleen at 20 ug for 15 mins by auto- fluorescence based analysis; type: functional, cell-based; conditions: dose 20.0 µg
[8] = system: Serum; test: Induction of antibody titer production in immunized BALB/c mouse serum assessed as fold increase in IgG1 antibody titer at 20 ug for 28 days; type: functional; conditions: dose 20 µg; time 28 day
[9] = Induction of mouse spleen dendritic cells activation at 20 ug for 24 hrs relative to control; type: functional, Dendritic cell; conditions: dose 20 µg
[10] = molecular target: Nucleotide-binding oligomerization domain-containing protein 2 (Homo sapiens) (UniProt Q9HC29); test: Binding affinity to NOD2 in HEK-Blue hNOD2 cells by measuring secreted alkaline phosphatase into culture supernatant at 20 ug measured after 24 hrs by HEK-Blue detection method; type: cell-based; conditions: filed as agonist, dose 20.0 µg
[11] = Induction of BALB/c mouse peritoneal macrophage activation by measuring TNF-alpha level at 20 ug for 48 hrs by ELISA analysis; type: functional; conditions: dose 20 µg
[12] = system: CD8-positive T cell; test: Stimulation of […] in mouse spleen at 20 ug for 15 mins by auto- fluorescence based analysis; type: functional, tissue-based; conditions: dose 20.0 µg
[13] = system: CD8-positive T cell; test: Stimulation of […] in mouse spleen for 15 mins by auto- fluorescence based analysis; type: functional, tissue-based; conditions: dose 10-30 µg
[14] = system: Serum; test: Induction of antibody titer production in immunized BALB/c mouse serum assessed as fold increase in IgG1 antibody titer at 30 ug for 28 days; type: functional; conditions: dose 30 µg; time 28 day
[15] = system: CD4+ve Th; test: Stimulation of CD4+ T helper cells in mouse spleen for 15 mins by auto- fluorescence based analysis; type: functional, cell-based
[16] = Cytotoxicity against BALB/c mouse peritoneal macrophage assessed as cell proliferation at 20 ug for 48 hrs by MTT assay relative to control; type: toxicity, cell-based; conditions: peritoneal macrophages, at 20 µg, read-out: Activity
[17] = system: Serum; test: Induction of antibody titer production in immunized BALB/c mouse serum assessed as increase in IgG2a antibody titer at 20 ug for 28 days; type: functional, cell-free; conditions: dose 20.0 µg, time 28.0 day
[18] = system: Serum; test: Induction of antibody titer production in immunized BALB/c mouse serum assessed as increase in IgG1 antibody titer at 20 ug for 28 days; type: functional, cell-free; conditions: dose 20.0 µg, time 28.0 day

Sequence of Nucleotide-binding oligomerization domain-containing protein 2 (Homo sapiens) (Q9HC29 whole entry, the tested form may be a part): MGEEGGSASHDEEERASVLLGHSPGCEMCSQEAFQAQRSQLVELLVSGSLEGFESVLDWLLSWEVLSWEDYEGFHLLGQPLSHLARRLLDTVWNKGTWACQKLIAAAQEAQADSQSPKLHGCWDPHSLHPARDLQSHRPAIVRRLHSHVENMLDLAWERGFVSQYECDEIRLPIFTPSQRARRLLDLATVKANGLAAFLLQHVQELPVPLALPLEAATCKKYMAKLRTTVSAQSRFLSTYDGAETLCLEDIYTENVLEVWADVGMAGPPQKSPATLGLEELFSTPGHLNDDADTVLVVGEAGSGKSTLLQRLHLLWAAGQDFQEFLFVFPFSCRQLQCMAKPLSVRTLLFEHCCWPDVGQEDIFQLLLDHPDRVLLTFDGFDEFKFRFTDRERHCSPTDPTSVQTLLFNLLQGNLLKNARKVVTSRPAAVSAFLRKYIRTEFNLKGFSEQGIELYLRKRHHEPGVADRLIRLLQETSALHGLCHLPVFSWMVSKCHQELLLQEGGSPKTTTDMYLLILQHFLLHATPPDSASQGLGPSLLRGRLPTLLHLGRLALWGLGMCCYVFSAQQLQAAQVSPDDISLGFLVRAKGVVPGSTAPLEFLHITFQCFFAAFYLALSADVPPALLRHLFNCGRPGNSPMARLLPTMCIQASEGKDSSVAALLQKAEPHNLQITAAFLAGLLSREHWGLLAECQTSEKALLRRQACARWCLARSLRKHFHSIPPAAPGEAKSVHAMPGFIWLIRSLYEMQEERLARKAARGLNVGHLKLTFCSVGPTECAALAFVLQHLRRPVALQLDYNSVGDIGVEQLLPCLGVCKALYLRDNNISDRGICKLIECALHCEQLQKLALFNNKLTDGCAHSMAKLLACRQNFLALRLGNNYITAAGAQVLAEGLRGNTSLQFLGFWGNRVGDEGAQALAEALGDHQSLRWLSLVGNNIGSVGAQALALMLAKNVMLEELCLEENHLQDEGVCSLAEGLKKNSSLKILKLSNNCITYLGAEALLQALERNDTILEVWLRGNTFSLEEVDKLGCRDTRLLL

For `CCCCCCCCn1nnc([C@@H](CCC(=O)O)NC(=O)[C@H](C)NC(=O)[C@@H](C)O[C@H]2[C@H](O)[C@@H](CO)O[C@H](O)[C@@H]2NC(C)=O)n1`, the Activity [1] was “Active”, the Activity [2] was “Non-Toxic” and the Activity [3] was “Active”. For the same compound, the Activity [4] was “Active”, the Activity [5] was “Non-Toxic” and the Activity [6] was “Active”. The Activity [7] was “inactive”, the “fold change (FC)” value [8] was 11 and the Activity [9] was 13%. For the same compound, the Activity [10] was “Active”, the Activity [11] was “<=100 pg/ml” and the Activity [12] was “inactive”.

With `CCCCCCCCCCCCCCCCCCn1nnc([C@@H](CCC(=O)O)NC(=O)[C@H](C)NC(=O)[C@@H](C)O[C@H]2[C@H](O)[C@@H](CO)O[C@H](O)[C@@H]2NC(C)=O)n1` the Activity [2] was “Non-Toxic”, the Activity [9] was 13% and the Activity [10] was “Active”. For the same compound, the Activity [11] was “<=100 pg/ml”.

With `CCCCn1nnc([C@@H](CCC(=O)O)NC(=O)[C@H](C)NC(=O)[C@@H](C)O[C@H]2[C@H](O)[C@@H](CO)O[C@H](O)[C@@H]2NC(C)=O)n1` the Activity [1] was “Active”, the Activity [13] was “Dose-Dependent Effect” and the Activity [2] was “Non-Toxic”. The Activity [3] was “Active”, the Activity [5] was “Non-Toxic” and the “fold change (FC)” value [8] was 8. For the same compound, the “fold change (FC)” value [14] was 11, the Activity [9] was 13% and the Activity [10] was “Active”. The Activity [11] was “<=100 pg/ml” and the Activity [15] was “Dose-Dependent Effect”.

In the case of `CCCCCCCCCCCCn1nnc([C@@H](CCC(=O)O)NC(=O)[C@H](C)NC(=O)[C@@H](C)O[C@H]2[C@H](O)[C@@H](CO)O[C@H](O)[C@@H]2NC(C)=O)n1`, the Activity [2] is reported as “Non-Toxic”, the viability at 48 h, 20 ug [16] is reported as under 140% and the Activity [9] is reported as 13%. For the same compound, the Activity [10] was “Active” and the Activity [11] was 250 pg/mL.

In the case of `CC(=O)N[C@H]1[C@@H](OCc2ccccc2)O[C@@H]2CO[C@@H](c3ccccc3)O[C@H]2[C@@H]1O[C@H](C)C(=O)N[C@@H](C)C(=O)N[C@H](CCC(=O)OCc1ccccc1)C(N)=O`, the Activity [17] is reported as “Active”, the Activity [2] is reported as “Non-Toxic” and the Activity [5] is reported as “Toxic”. The “fold change (FC)” value [8] was 7, the Activity [9] was 13% and the Activity [10] was “Active”. The Activity [18] was “Active”.

For `CC(=O)N[C@@H]1[C@@H](O[C@H](C)C(=O)N[C@@H](C)C(=O)N[C@H](CCC(=O)O)c2nnn(C3CCCCCC3)n2)[C@H](O)[C@@H](CO)O[C@@H]1O`, the Activity [2] was “Non-Toxic”, the Activity [9] was 13% and the Activity [10] was “Active”. For the same compound, the Activity [11] was 250 pg/mL.

With `CC(=O)N[C@@H]1[C@@H](O[C@H](C)C(=O)N[C@@H](C)C(=O)N[C@H](CCC(=O)O)c2nn[nH]n2)[C@H](O)[C@@H](CO)O[C@@H]1O` the Activity [2] was “Non-Toxic”, the Activity [9] was 13% and the Activity [10] was “Active”. The Activity [11] was 250 pg/mL.
